Laboratory results: ChEMBL document CHEMBL4049425, “Fragment-Based, Structure-Enabled Discovery of Novel Pyridones and Pyridone Macrocycles as Potent Bromodomain and Extra-Terminal Domain (BET) Family Bromodomain Inhibitors” (J Med Chem, 2017)

Tested on: Liver
Test: Unbound intrinsic clearance in human liver microsomes
Type: ADME, microsome
Conditions: not given

| SMILES | CL free [mL/min/kg] |
| --- | --- |
| CCS(=O)(=O)c1ccc2c(c1)-c1cn(C)c(=O)cc1OCCc1ccccc1O2 | 100 |
| CCS(=O)(=O)c1ccc2c(c1)-c1cn(C)c(=O)cc1OCCCCc1ccccc1O2 | 130 |
| CCS(=O)(=O)Nc1ccc2c(c1)-c1cn(C)c(=O)cc1OCCCCCc1cc(Cl)ccc1O2 | 517 |
| Cn1cc2c(cc1=O)OCCCCc1cc(Cl)ccc1Oc1ccc(CS(C)(=O)=O)cc1-2 | 267 |

Tested on: Liver
Test: Unbound intrinsic clearance in rat liver microsomes
Type: ADME, microsome
Conditions: not given

| SMILES | CL free [mL/min/kg] |
| --- | --- |
| CCS(=O)(=O)c1ccc2c(c1)-c1cn(C)c(=O)cc1OCCc1ccccc1O2 | 167 |
| CCS(=O)(=O)c1ccc2c(c1)-c1cn(C)c(=O)cc1OCCCCc1ccccc1O2 | 533 |
| CCS(=O)(=O)Nc1ccc2c(c1)-c1cn(C)c(=O)cc1OCCCCCc1cc(Cl)ccc1O2 | 1830 |
| Cn1cc2c(cc1=O)OCCCCc1cc(Cl)ccc1Oc1ccc(CS(C)(=O)=O)cc1-2 | 317 |

Target: T1, Bromodomain-containing protein 4 (Homo sapiens, UniProt O60885)
Test: Inhibition of human N-terminal His6-tagged BRD4 BD1-BD2 (57 to 550 residues) expressed in EScherichia coli BL21(DE3) after 1 hr by Alexa-647-conjugated probe based TR-FRET assay
Conditions: not given

| SMILES | Ki [nM] |
| --- | --- |
| CCS(=O)(=O)c1ccc2c(c1)-c1cn(C)c(=O)cc1OCCc1ccccc1O2 | 100 |
| CCS(=O)(=O)c1ccc2c(c1)-c1cn(C)c(=O)cc1OCCCCc1ccccc1O2 | 1.9 |
| CCS(=O)(=O)Nc1ccc2c(c1)-c1cn(C)c(=O)cc1OCCCCCc1cc(Cl)ccc1O2 | 2.8 |
| Cn1cc2c(cc1=O)OCCCCc1cc(Cl)ccc1Oc1ccc(CS(C)(=O)=O)cc1-2 | 3.8 |

Tested on: not listed separately
Test: Lipophilicity, log D of the compound
Type: physicochemical
Conditions: octanol/water

| SMILES | logD |
| --- | --- |
| CCS(=O)(=O)c1ccc2c(c1)-c1cn(C)c(=O)cc1OCCc1ccccc1O2 | 2.8 to 4.3 |
| CCS(=O)(=O)c1ccc2c(c1)-c1cn(C)c(=O)cc1OCCCCc1ccccc1O2 | 2.8 to 4.3 |
| CCS(=O)(=O)Nc1ccc2c(c1)-c1cn(C)c(=O)cc1OCCCCCc1cc(Cl)ccc1O2 | 4.3 |
| Cn1cc2c(cc1=O)OCCCCc1cc(Cl)ccc1Oc1ccc(CS(C)(=O)=O)cc1-2 | 2.8 to 4.3 |

Tested on: Mus musculus
Test: Unbound AUC in mouse at 1 mg/kg, po
Type: ADME, organism-based
Conditions: in vivo

| SMILES | fAUC [ng·h/mL] |
| --- | --- |
| Cn1cc2c(cc1=O)OCCCCc1cc(Cl)ccc1Oc1ccc(CS(C)(=O)=O)cc1-2 | 29 |

Tested on: not listed separately
Test: Oral bioavailability in mouse at 1 mg/kg
Type: ADME, organism-based
Conditions: in vivo

| SMILES | bioavailability [%] |
| --- | --- |
| Cn1cc2c(cc1=O)OCCCCc1cc(Cl)ccc1Oc1ccc(CS(C)(=O)=O)cc1-2 | 68 |

Tested on: Mus musculus
Test: Fraction absorbed in portal vein of mouse at 1 mg/kg, iv or 1 mg/kg, po
Type: ADME, organism-based
Conditions: in vivo

| SMILES | FaFg |
| --- | --- |
| Cn1cc2c(cc1=O)OCCCCc1cc(Cl)ccc1Oc1ccc(CS(C)(=O)=O)cc1-2 | 0.79 |

Target: T1, Bromodomain-containing protein 4
Test: Inhibition of BRD4 in human NCI-H1299 cells after 24 hrs by Bright-Glo luciferase reporter gene assay
Type: cell-based
Conditions: not given

| SMILES | EC50 [nM] |
| --- | --- |
| CCS(=O)(=O)c1ccc2c(c1)-c1cn(C)c(=O)cc1OCCc1ccccc1O2 | 630 |
| CCS(=O)(=O)c1ccc2c(c1)-c1cn(C)c(=O)cc1OCCCCc1ccccc1O2 | 6.7 |
| CCS(=O)(=O)Nc1ccc2c(c1)-c1cn(C)c(=O)cc1OCCCCCc1cc(Cl)ccc1O2 | 35 |
| Cn1cc2c(cc1=O)OCCCCc1cc(Cl)ccc1Oc1ccc(CS(C)(=O)=O)cc1-2 | 18 |

Tested on: Mus musculus
Test: Unbound clearance in mouse at 1 mg/kg, iv or 1 mg/kg, po
Type: ADME, organism-based
Conditions: in vivo

| SMILES | CL free [mL/min/kg] |
| --- | --- |
| Cn1cc2c(cc1=O)OCCCCc1cc(Cl)ccc1Oc1ccc(CS(C)(=O)=O)cc1-2 | 400 |

Tested on: Liver
Test: Unbound intrinsic clearance in mouse liver microsomes
Type: ADME, microsome
Conditions: not given

| SMILES | CL free [mL/min/kg] |
| --- | --- |
| CCS(=O)(=O)c1ccc2c(c1)-c1cn(C)c(=O)cc1OCCc1ccccc1O2 | 333 |
| CCS(=O)(=O)c1ccc2c(c1)-c1cn(C)c(=O)cc1OCCCCc1ccccc1O2 | 867 |
| CCS(=O)(=O)Nc1ccc2c(c1)-c1cn(C)c(=O)cc1OCCCCCc1cc(Cl)ccc1O2 | 4670 |
| Cn1cc2c(cc1=O)OCCCCc1cc(Cl)ccc1Oc1ccc(CS(C)(=O)=O)cc1-2 | 1670 |

Tested on: MX1
Test: Antiproliferative activity against human MX1 cells after 72 hrs by Cell Titer Glo assay
Type: functional, cell-based
Conditions: MX1, 72 h

| SMILES | EC50 [nM] |
| --- | --- |
| CCS(=O)(=O)c1ccc2c(c1)-c1cn(C)c(=O)cc1OCCc1ccccc1O2 | 710 |
| CCS(=O)(=O)c1ccc2c(c1)-c1cn(C)c(=O)cc1OCCCCc1ccccc1O2 | 10 |
| CCS(=O)(=O)Nc1ccc2c(c1)-c1cn(C)c(=O)cc1OCCCCCc1cc(Cl)ccc1O2 | 16 |
| Cn1cc2c(cc1=O)OCCCCc1cc(Cl)ccc1Oc1ccc(CS(C)(=O)=O)cc1-2 | 19 |

Tested on: not listed separately
Test: Fraction unbound in mouse plasma at 1 uM after 4 hrs by LC-MS/MS analysis
Type: ADME, cell-free
Conditions: not given

| SMILES | fraction unbound at 4 h, 1 µM |
| --- | --- |
| Cn1cc2c(cc1=O)OCCCCc1cc(Cl)ccc1Oc1ccc(CS(C)(=O)=O)cc1-2 | 0.03 |

Tested on: not listed separately
Test: Permeability of the compound by PAMPA
Type: physicochemical
Conditions: read-out: permeability

| SMILES | Papp [×10⁻⁶ cm/s] |
| --- | --- |
| CCS(=O)(=O)Nc1ccc2c(c1)-c1cn(C)c(=O)cc1OCCCCCc1cc(Cl)ccc1O2 | 0.89 |
| Cn1cc2c(cc1=O)OCCCCc1cc(Cl)ccc1Oc1ccc(CS(C)(=O)=O)cc1-2 | 9.2 |
